Results on 59 compounds are retold here after US9278954B2, “Pyrrolidine derivatives, pharmaceutical compositions and uses thereof” (Boehringer Ingelheim International GmbH, priority 2013, dated 2016).

pIC50: −log10 of the molar value.

The target of the assay is human ACC2 (Homo sapiens (Human), UniProt O00763). As to the kind of experiment: ACC2 assay (spectrophotometric 384 well assay, NADH-linked kinetic method). The note with it: hACC2 construct lacking the 128 N-terminal amino acids; 25° C., 340 nm over 15 minutes. The format is biochemical. Here is the method: Spectrophotometric 384 Well Assay
Sequence of human ACC2 (O00763 129-2458): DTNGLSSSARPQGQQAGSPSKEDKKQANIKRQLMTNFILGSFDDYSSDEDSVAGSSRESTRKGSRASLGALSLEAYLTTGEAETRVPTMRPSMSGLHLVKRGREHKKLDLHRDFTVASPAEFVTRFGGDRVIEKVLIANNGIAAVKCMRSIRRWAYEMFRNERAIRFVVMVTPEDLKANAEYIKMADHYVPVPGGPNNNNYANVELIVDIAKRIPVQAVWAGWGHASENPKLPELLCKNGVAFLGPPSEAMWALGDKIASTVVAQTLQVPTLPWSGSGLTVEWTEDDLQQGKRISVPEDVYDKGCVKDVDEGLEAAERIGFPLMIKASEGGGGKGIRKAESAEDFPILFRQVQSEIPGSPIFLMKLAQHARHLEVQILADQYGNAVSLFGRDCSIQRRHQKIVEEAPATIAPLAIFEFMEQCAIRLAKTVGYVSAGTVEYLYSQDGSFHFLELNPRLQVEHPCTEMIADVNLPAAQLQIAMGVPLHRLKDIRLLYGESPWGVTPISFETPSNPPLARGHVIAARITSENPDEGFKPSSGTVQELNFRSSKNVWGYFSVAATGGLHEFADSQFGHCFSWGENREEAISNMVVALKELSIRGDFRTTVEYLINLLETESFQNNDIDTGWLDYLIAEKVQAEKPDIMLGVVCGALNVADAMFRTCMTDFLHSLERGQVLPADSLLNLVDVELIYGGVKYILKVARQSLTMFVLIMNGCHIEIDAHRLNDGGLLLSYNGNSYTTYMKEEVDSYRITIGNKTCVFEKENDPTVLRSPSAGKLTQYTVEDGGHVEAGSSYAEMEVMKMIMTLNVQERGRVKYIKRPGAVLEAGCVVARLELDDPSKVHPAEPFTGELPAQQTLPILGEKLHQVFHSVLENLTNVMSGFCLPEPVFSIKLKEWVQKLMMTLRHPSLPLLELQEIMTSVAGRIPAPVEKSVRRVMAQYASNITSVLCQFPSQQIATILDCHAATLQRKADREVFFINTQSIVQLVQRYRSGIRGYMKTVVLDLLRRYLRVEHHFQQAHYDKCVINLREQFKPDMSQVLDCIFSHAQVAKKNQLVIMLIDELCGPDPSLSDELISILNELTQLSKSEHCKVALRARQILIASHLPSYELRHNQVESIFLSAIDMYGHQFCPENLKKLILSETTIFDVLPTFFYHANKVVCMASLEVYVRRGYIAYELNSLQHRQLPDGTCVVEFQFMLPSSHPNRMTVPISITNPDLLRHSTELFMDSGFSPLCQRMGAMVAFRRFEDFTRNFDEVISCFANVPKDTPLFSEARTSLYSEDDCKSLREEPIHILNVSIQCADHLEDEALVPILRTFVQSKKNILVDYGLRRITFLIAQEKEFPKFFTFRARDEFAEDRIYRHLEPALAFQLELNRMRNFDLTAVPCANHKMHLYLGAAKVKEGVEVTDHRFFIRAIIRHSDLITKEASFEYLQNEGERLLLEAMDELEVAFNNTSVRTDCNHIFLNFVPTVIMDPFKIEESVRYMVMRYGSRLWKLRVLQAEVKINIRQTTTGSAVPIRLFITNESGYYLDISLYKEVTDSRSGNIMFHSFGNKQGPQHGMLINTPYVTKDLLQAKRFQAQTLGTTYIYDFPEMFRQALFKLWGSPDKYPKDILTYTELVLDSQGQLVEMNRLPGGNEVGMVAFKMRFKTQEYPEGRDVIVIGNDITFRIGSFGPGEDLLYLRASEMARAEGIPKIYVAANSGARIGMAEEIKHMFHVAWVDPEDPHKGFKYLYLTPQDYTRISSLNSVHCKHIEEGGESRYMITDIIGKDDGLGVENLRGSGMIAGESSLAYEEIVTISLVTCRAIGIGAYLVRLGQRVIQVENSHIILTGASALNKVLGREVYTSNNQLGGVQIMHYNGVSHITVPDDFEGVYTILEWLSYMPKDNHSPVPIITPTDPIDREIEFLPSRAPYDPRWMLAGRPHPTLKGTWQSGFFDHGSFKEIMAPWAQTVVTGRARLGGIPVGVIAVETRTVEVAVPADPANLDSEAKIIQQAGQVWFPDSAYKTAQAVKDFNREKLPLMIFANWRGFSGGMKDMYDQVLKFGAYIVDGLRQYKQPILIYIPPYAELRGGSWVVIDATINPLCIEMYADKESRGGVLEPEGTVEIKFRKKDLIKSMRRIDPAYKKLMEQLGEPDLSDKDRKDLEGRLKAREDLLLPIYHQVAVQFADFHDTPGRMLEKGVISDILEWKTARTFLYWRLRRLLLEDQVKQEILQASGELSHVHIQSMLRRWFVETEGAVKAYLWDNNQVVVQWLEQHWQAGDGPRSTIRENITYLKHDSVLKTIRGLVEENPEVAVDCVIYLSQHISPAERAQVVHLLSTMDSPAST
Malonyl CoA formation by acetyl CoA carboxylases is stoichometrically linked to the consumption of ATP. ACC2 activity is measured in a NADH-linked kinetic method measuring ADP generated during the ACC reaction using a coupled lactate dehydrogenase/pyruvate kinase reaction.
The protein is then expressed in insect cells using a baculoviral expression system. Protein purification is performed by anion exchange.
All compounds are dissolved in dimethyl sulfoxide (DMSO) to a concentration of 10 mM.
The enzymatic reaction is then started by addition of a mixture of NADH, acetyl
Coenzyme A (both […].) and ATP (500 uM f.c.). The decrease of the optical density (slope S) is then determined at 25° C. at a wavelength of 340 nm over 15 minutes in a spectrophotometric reader.
Each assay microtiter plate contains wells with vehicle instead of compound as controls for the non-inhibited enzyme (100% CTL; ‘HIGH’) and wells without acetyl-CoA as controls for non-specific NADH degradation (0% CTL; ‘LOW’).
With `CC(C(=O)NCC1COC1)c1ccc(O[C@@H]2CCN(c3ncnc(OCC(C)(C)O)c3Cl)C2)cc1` (some centres unmarked) [Example 1.85], the negative logarithm of the IC50 (pIC50) (in general, the negative decadic logarithm of the IC50, by convention in mol/L) is 5.91.
Next, `CCCNC(=O)C(C)c1ccc(O[C@@H]2CCN(c3nc(N(C)C)ncc3F)C2)cc1` (some centres unmarked) [Example 1.65]: 6.18; `CCNC(=O)C(C)c1ccc(O[C@@H]2CCN(c3nc(N(C)C)ncc3F)C2)cc1` (some centres unmarked) [Example 1.27]: 6.46.
As for `CCNC(=O)C(C)c1ccc(O[C@@H]2CCN(c3ccc(F)c(C(F)(F)F)c3)C2)cc1` (some centres unmarked) [Example 7.6], the figure is 6.64.
Next, `CC(C(=O)Nc1cncnc1)c1ccc(O[C@@H]2CCN(c3ccc(OCC4CC4(F)F)cn3)C2)cc1` (some centres unmarked) [Example 1.70]: 6.13.
`CC(C(=O)NCC(F)F)c1ccc(O[C@@H]2CCN(c3ccc(OCC4CC4(F)F)cn3)C2)cc1` (some centres unmarked) [Example 1.15] had a pIC50 of 6.58.
Next, `CC(CC#N)NC(=O)C(C)c1ccc(O[C@@H]2CCN(c3ccc(OCC4CC4(F)F)cn3)C2)cc1` (some centres unmarked) [Example 1.84]: 5.95; `CCNC(=O)C(C)c1ccc(O[C@@H]2CCN(c3ncc(OC4CCCC4)cc3F)C2)cc1` (stereo partly drawn) [Example 8.1, 2-(4-[1-(5-Cyclopentyloxy-3-fluoro-pyridin-2-yl)-(R)-pyrrolidin-3-yloxy]-phenyl)-N-ethyl-propionamide]: 6.98; `CC(C(=O)N[C@H](C)CO)c1ccc(O[C@@H]2CCN(c3ccc(OCC4CC4(F)F)cn3)C2)cc1` (some centres unmarked) [Example 1.57]: 6.23.
The compound `CCNC(=O)C(C)c1ccc(O[C@@H]2CCN(c3ccc(OCC4CC4)nc3)C2)cc1` (some centres unmarked) [Example 7.24] had a negative logarithm of the IC50 (pIC50) of 6.33.
In turn, `CCNC(=O)C(C)c1ccc(O[C@@H]2CCN(c3ccc(OCC)cc3F)C2)cc1` (some centres unmarked) [Example 4.2] gave a pIC50 of 6.24.
Next, `CCCNc1nccc(N2CC[C@@H](Oc3ccc(C(C)C(=O)Nc4cccnc4)cc3)C2)c1F` (some centres unmarked) [Example 1.35]: 6.39; `CCCNc1nccc(N2CC[C@@H](Oc3ccc(C(C)C(=O)NCCF)cc3)C2)c1F` (some centres unmarked) [Example 1.19]: 6.53.
As for `CCNC(=O)C(C)c1ccc(O[C@@H]2CCN(c3ncnc(OCC(C)(C)O)c3Cl)C2)cc1` (single isomer, unassigned) [6.3 isomer 1], the figure is 7.02; as for `CC(C(=O)NC1CC1C)c1ccc(O[C@@H]2CCN(c3nc(N(C)C)ncc3F)C2)cc1` (single isomer, unassigned) [6.2 isomer 2], 6.75.
Next, `CC[C@@H](C)NC(=O)C(C)c1ccc(O[C@@H]2CCN(c3ccc(OCC4CC4(F)F)cn3)C2)cc1` (some centres unmarked) [Example 1.58]: 6.22; `CCNC(=O)C(C)c1ccc(O[C@@H]2CCN(c3cccc(C)n3)C2)cc1` (some centres unmarked) [Example 7.33]: 6.09; `CCNC(=O)C(C)c1ccc(O[C@@H]2CCN(c3ccnc(N(C)CC)n3)C2)cc1` (some centres unmarked) [Example 2.2]: 6.75.
The compound `CC(C(=O)NCC(F)F)c1ccc(O[C@@H]2CCN(c3ncnc(OCC(C)(C)O)c3Cl)C2)cc1` (single isomer, unassigned) [6.5 isomer 2] showed a negative logarithm of the IC50 (pIC50) of 6.06.
As for `CC(C(=O)NC1CC1C)c1ccc(O[C@@H]2CCN(c3nc(N(C)C)ncc3F)C2)cc1` (single isomer, unassigned) [6.2 isomer 3], the figure is 6.66; as for `CCNC(=O)C(C)c1ccc(O[C@@H]2CCN(c3cccc(C(F)(F)F)n3)C2)cc1` (some centres unmarked) [Example 7.9], 6.50; as for `CC(C(=O)NC1CC1C)c1ccc(O[C@@H]2CCN(c3ncnc(OCC(C)(C)O)c3Cl)C2)cc1` (single isomer, unassigned) [6.4 isomer 1], 6.92.
Next, `CCNC(=O)C(C)c1ccc(O[C@@H]2CCN(c3cccc(N(C)C)n3)C2)cc1` (some centres unmarked) [Example 7.20]: 6.35; `CCNC(=O)C(C)c1ccc(O[C@@H]2CCN(c3ccc(OCC4CCC4)cc3)C2)cc1` (some centres unmarked) [Example 7.18]: 6.37.
For `C#CC(C)NC(=O)C(C)c1ccc(O[C@@H]2CCN(c3ccnc(NCCC)c3F)C2)cc1` (some centres unmarked) [Example 1.90], the pIC50 was 5.65.
Regarding `CCNC(=O)C(C)c1ccc(O[C@@H]2CCN(c3ccc(OCC4CC4)cc3)C2)cc1` (some centres unmarked) [Example 7.8], the pIC50 is 6.56.
Next, `CCNC(=O)C(C)c1ccc(O[C@@H]2CCN(c3cccc(C(F)(F)F)c3)C2)cc1` (some centres unmarked) [Example 7.4]: 6.65; `CC(C(=O)NC1CC1)c1ccc(O[C@@H]2CCN(c3nc(N(C)C)ncc3F)C2)cc1` (some centres unmarked) [Example 1.7]: 6.77.
Next, `CCCNc1ncnc(N2CC[C@@H](Oc3ccc(C(C)C(=O)NC4CC4)cc3)C2)c1F` (some centres unmarked) [Example 3.3]: 6.55; `CC(C(=O)NC1CCC1)c1ccc(O[C@@H]2CCN(c3ncnc(OCC(C)(C)O)c3Cl)C2)cc1` (some centres unmarked) [Example 1.50]: 6.30; `CCNC(=O)C(C)c1ccc(O[C@@H]2CCN(c3nc(C)ccc3F)C2)cc1` (some centres unmarked) [Example 7.25]: 6.30.
Next, `CCNC(=O)C(C)c1ccc(O[C@@H]2CCN(c3ccc4c(c3)OCCCO4)C2)cc1` (some centres unmarked) [Example 7.10]: 6.48; `CCNC(=O)C(C)c1ccc(O[C@@H]2CCN(c3ccc(F)c(C(F)(F)F)n3)C2)cc1` (some centres unmarked) [Example 8.2]: 6.45.
Regarding `CC(C(=O)Nc1cccc(F)c1)c1ccc(O[C@@H]2CCN(c3nc(N(C)C)ncc3F)C2)cc1` (some centres unmarked) [Example 3.4], the pIC50 was 6.52.
As for `CCNC(=O)C(C)c1ccc(O[C@@H]2CCN(c3ncc(OCC4CC4(F)F)cn3)C2)cc1` (stereo partly drawn) [Example 9.1, 2-(4-(1-[5-(2,2-Difluoro-cyclopropylmethoxy)-pyrimidin-2-yl]-(R)-pyrrolidin-3-yloxy)-phenyl)-N-ethyl-propionamide], the figure is 6.35; as for `CCNC(=O)C(C)c1ccc(O[C@@H]2CCN(c3ccnc(N(CC)CC)n3)C2)cc1` (stereo partly drawn) [Example 2.1, (R)-2-(4-[1-(2-Diethylamino-pyrimidin-4-yl)-pyrrolidin-3-lyoxy]-phenyl)-N-ethyl-propionamide], 7.02; as for `CCNC(=O)C(C)c1ccc(O[C@@H]2CCN(c3ccnc(N(C)C4CC4)n3)C2)cc1` (some centres unmarked) [Example 2.5], 6.24.
As for `CC(C(=O)NCCF)c1ccc(O[C@@H]2CCN(c3nc(N(C)C)ncc3F)C2)cc1` (some centres unmarked) [Example 1.51], the figure is 6.29; as for `CCNC(=O)C(C)c1ccc(O[C@@H]2CCN(c3ccc(OCC4CC4(F)F)cn3)C2)cc1` (some centres unmarked) [Example 7.3], 6.72; as for `CCCNC(=O)C(C)c1ccc(O[C@@H]2CCN(c3ncnc(OCC(C)(C)O)c3Cl)C2)cc1` (some centres unmarked) [Example 1.40], 6.36.
For the compound `CCCNc1nccc(N2CC[C@@H](Oc3ccc(C(C)C(=O)NC(C)C)cc3)C2)c1F` (some centres unmarked) [Example 1.24], the pIC50 is 6.50.
As for `C=C(C)CNC(=O)C(C)c1ccc(O[C@@H]2CCN(c3ncnc(OCC(C)(C)O)c3Cl)C2)cc1` (some centres unmarked) [Example 1.23], the figure is 6.50; as for `CCNC(=O)C(C)c1ccc(O[C@@H]2CCN(c3ncnc(OCC(C)(F)F)c3F)C2)cc1` (some centres unmarked) [Example 1.30], 6.42; as for `CCNC(=O)C(C)c1ccc(O[C@@H]2CCN(c3nc(N(C)C)ncc3F)C2)cc1` (single isomer, unassigned) [6.6 isomer 1], 6.90.
Next, `CC(C(=O)NCCF)c1ccc(O[C@@H]2CCN(c3ncnc(OCC(C)(C)O)c3Cl)C2)cc1` (some centres unmarked) [Example 1.54]: 6.26; `CCNC(=O)C(C)c1ccc(O[C@@H]2CCN(c3ccc(OC4CC4)cn3)C2)cc1` (some centres unmarked) [Example 8.4]: 6.04; `CC(C)NC(=O)C(C)c1ccc(O[C@@H]2CCN(c3ncnc(OCC(C)(F)F)c3F)C2)cc1` (some centres unmarked) [Example 1.80]: 6.04.
As for `CCNC(=O)C(C)c1ccc(O[C@@H]2CCN(c3ccc(F)c(Cl)c3)C2)cc1` (some centres unmarked) [Example 7.31], the figure is 6.19; as for `CC(C(=O)NC1CC1C)c1ccc(O[C@@H]2CCN(c3ccc(OCC4CC4(F)F)cn3)C2)cc1` (some centres unmarked) [Example 1.10], 6.69; as for `CCNC(=O)C(C)c1ccc(O[C@@H]2CCN(c3ccc(OCC)cc3)C2)cc1` (stereo partly drawn) [Example 4.1, 2-(4-[1-(4-Ethoxyl-phenyl)-(R)-pyrrolidin-3-yloxy]-phenyl)-N-ethyl-propionamide], 6.54.
For `CC(C(=O)NC1CC1C)c1ccc(O[C@@H]2CCN(c3ncnc(OCC(C)(C)O)c3Cl)C2)cc1` (some centres unmarked) [Example 1.13], the negative logarithm of the IC50 (pIC50) is 6.63.
Compound `CC(C(=O)NC1CC1)c1ccc(O[C@@H]2CCN(c3ccc(OCC4CC4(F)F)cn3)C2)cc1` (some centres unmarked) [Example 1.8] gave a pIC50 of 6.75.
Take `CC(C(=O)NCCF)c1ccc(O[C@@H]2CCN(c3ncnc(OCC(C)(F)F)c3F)C2)cc1` (some centres unmarked) [Example 1.55]: the negative-log IC50 (pIC50) was 6.24.
As for `CC(CO)NC(=O)C(C)c1ccc(O[C@@H]2CCN(c3ncnc(OCC(C)(F)F)c3F)C2)cc1` (some centres unmarked) [Example 1.76], the figure is 6.08.
Next, `C=CCNC(=O)C(C)c1ccc(O[C@@H]2CCN(c3ccc(OCC4CC4(F)F)cn3)C2)cc1` (some centres unmarked) [Example 1.31]: 6.42; `CCCNc1ncnc(N2CC[C@@H](Oc3ccc(C(C)C(=O)NCC)cc3)C2)c1F` (some centres unmarked) [Example 3.12]: 5.99; `CCCNC(=O)C(C)c1ccc(O[C@@H]2CCN(c3ccnc(NCCC)c3F)C2)cc1` (some centres unmarked) [Example 1.32]: 6.40.
As for `CC(=O)Nc1nc(CNC(=O)C(C)c2ccc(O[C@@H]3CCN(c4ncnc(OCC(C)(F)F)c4F)C3)cc2)cs1` (some centres unmarked) [Example 1.87], the figure is 5.86; as for `CC[C@@H](C)NC(=O)C(C)c1ccc(O[C@@H]2CCN(c3ncnc(OCC(C)(C)O)c3Cl)C2)cc1` (some centres unmarked) [Example 1.47], 6.33.
